According to US10124004B2, “Pyrido[3,4-d]pyrimidine derivative and pharmaceutically acceptable salt thereof” (Teijin Pharma Limited, priority 2015, dated 2018):
Like-named read-outs stand apart in the source and are kept apart here.

Key:
[1] = biological target: T1, CDK2/cyclin A2 (Homo sapiens, UniProt P24941); test: Human CDK2/cyclin A2 inhibitory activity (QS S Assist CDK2/Cyclin A2_FP Kit, IMAP fluorescence polarization); assay type: biochemical
T1 construct: purchased Carna Biosciences, Inc. QS S Assist CDK2/Cyclin A2_FP Kit
Method in brief: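 Kinase activity read as fluorescence polarization (485/535 nm) after phosphorylated fluorescent substrate binds IMAP reagent (30 min, RT, dark). Enzyme (2.5 ng/well) reacted 60 min at RT with ATP/substrate/metal in HEPES pH 7.4 buffer with Tween 20 and DTT; no-enzyme wells define 0% activity; IC50 by curve fit.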

[2] = biological target: T2, CDK4/cyclin D3 (Homo sapiens, UniProt P11802); test: Human CDK4/cyclin D3 inhibitory activity (QS S Assist CDK4/Cyclin D3_FP Kit, IMAP fluorescence polarization); assay type: biochemical
T2 construct: purchased Carna Biosciences, Inc. QS S Assist CDK4/Cyclin D3_FP Kit
Method in brief: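 Percent inhibition, relative to DMSO with and without enzyme, was curve-fitted to give IC50 from polarization (ex 485, em 535 nm). The 45-min room-temperature reaction used 12.5-25 ng/well enzyme, kit ATP/substrate/metal mix, and HEPES pH 7.4 buffer with Tween20 and DTT, followed by 30-min IMAP binding in the dark.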

[3] = 50% inhibitory concentration against CDK2/cyclin A2, given as class symbol
[4] = 50% inhibitory concentration against CDK4/cyclin D3, given as class symbol
[5] = Human CDK2/cyclin A2 inhibitory activity, read-out: CDK2 Activity symbol
[6] = Human CDK4/cyclin D3 inhibitory activity, read-out: CDK4 Activity symbol

T2 sequence (P11802 whole entry): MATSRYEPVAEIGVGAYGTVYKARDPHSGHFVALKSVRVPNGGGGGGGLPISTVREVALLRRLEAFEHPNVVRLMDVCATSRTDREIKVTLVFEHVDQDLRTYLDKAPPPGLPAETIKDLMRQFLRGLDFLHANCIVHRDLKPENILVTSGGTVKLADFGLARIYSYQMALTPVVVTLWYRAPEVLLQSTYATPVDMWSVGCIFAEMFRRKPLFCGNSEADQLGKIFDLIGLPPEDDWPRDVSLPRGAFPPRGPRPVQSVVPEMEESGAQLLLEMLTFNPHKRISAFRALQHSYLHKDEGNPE
T2 sequence (P30281 whole entry partner): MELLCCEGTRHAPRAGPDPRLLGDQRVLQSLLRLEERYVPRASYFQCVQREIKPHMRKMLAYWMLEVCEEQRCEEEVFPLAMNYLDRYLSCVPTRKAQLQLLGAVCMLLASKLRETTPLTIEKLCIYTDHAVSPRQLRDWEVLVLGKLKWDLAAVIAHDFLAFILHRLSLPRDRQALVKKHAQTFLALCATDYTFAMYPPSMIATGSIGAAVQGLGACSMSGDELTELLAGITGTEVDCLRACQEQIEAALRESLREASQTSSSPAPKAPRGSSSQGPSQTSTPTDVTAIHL

SMILES | IC50 [1, 3] [nM] | IC50 [2, 4] [nM] | IC50 [1, 5] [nM] | IC50 [2, 6] [nM]
CCNc1nc([C@@H](C)O)cc2cnc(Nc3ccc(N4CCNCC4)c(C)n3)nc12 [Compound 1091] | ≥ 100 | < 10 | – | –
CO[C@H](C)c1cc2cnc(Nc3ccc(N4CCN(C(=O)OC(C)C)CC4)nn3)nc2c(NC(C)C)n1 [Compound 748] | ≥ 100 | 10 to 100 | – | –
CC(C)Nc1nc([C@@H](C)O)cc2cnc(Nc3ccc(N4CC5CCCN5CC4=O)cn3)nc12 (stereo partly shown) [Compound 825] | ≥ 100 | < 10 | – | –
CC(C)Nc1nc(C(C)O)cc2cnc(Nc3ccc(OC4CCC(C(=O)O)CC4)cn3)nc12 (single isomer, unassigned) [Compound 831] | ≥ 100 | 10 to 100 | – | –
CC(C)Nc1nc([C@@H](C)O)cc2cnc(Nc3ccc(N4CCN(C[C@@H](C)O)CCC4=O)cn3)nc12 [Compound 721] | ≥ 100 | < 10 | – | –
CC(C)Nc1nc(C(C)O)cc2cnc(Nc3ccc(N4CCNCC4C(F)(F)F)cn3)nc12 (single isomer, unassigned) [Compound 776] | ≥ 100 | < 10 | – | –
CC(=O)c1cc2cnc(Nc3ccc(N4CCNCC4)cn3)nc2c(NC2CCCC2)n1 [Compound 57] | – | – | ≥ 100 | < 10
C[C@@H](O)c1cc2cnc(Nc3ccc(N4CCNCC4=O)cn3)nc2c(N[C@H]2CC[C@H](C)CC2)n1 [Compound 612] | – | – | 10 to 100 | < 10
CC(C)Nc1nc([C@@H](C)O)cc2cnc(Nc3ccc(N4CCN(CC(=O)O)CC4C(F)(F)F)cn3)nc12 (stereo partly shown) [Compound 892] | ≥ 100 | 10 to 100 | – | –
CC(C)Nc1nc(C(C)O)cc2cnc(Nc3ccc(N4CCN(C(C)CO)CCC4=O)cn3)nc12 (single isomer, unassigned) [Compound 809] | 10 to 100 | < 10 | – | –
CC(C)Nc1nc([C@@H](C)O)cc2cnc(Nc3ccc(N4CCC(CCC(=O)O)CC4)nn3)nc12 [Compound 828] | ≥ 100 | 10 to 100 | – | –
C[C@@H](O)c1cc2cnc(Nc3ccc(CN4CCNCC4)cn3)nc2c(N[C@H]2CCCOC2)n1 [Compound 256] | – | – | ≥ 100 | < 10
CC(O)c1cc2cnc(Nc3ccc(N4CCNCC4=O)cn3)nc2c(NC2CCCOC2)n1 (stereo not shown) [Compound 346] | – | – | ≥ 100 | < 10
CCCNc1nc(C(F)F)cc2cnc(Nc3ccc(N4CCNCC4=O)cn3)nc12 [Compound 821] | 10 to 100 | < 10 | – | –
CC(C)Nc1nc(C(F)F)cc2cnc(Nc3ccc(CN4CCOCC4)cn3)nc12 [Compound 94] | – | – | ≥ 100 | < 10
COCC(C)(C)Nc1nc([C@@H](C)O)cc2cnc(Nc3ccc(CN4CCn5ccnc5C4)cn3)nc12 [Compound 295] | – | – | ≥ 100 | 10 to 100
CO[C@H](C)c1cc2cnc(Nc3ccc(N4CCNCC4)nn3)nc2c(NCC2CCOCC2)n1 [Compound 358] | – | – | ≥ 100 | < 10
CO[C@H](C)c1cc2cnc(Nc3ccc(CN4CCN(CCF)CC4)cn3)nc2c(NC(C)C)n1 [Compound 276] | – | – | ≥ 100 | < 10
CO[C@H](C)c1cc2cnc(Nc3ccc(CN4CC5CC(C4)O5)cn3)nc2c(NC(C)C)n1 [Compound 272] | – | – | ≥ 100 | < 10
CCCNc1nc([C@@H](C)O)cc2cnc(Nc3ccc4c(n3)CCN(C(=O)OCCN(C)C)C4)nc12 [Compound 1141] | ≥ 100 | < 10 | – | –
CC(C)Nc1nc(C(F)F)cc2cnc(Nc3ccc(C4CCN(S(C)(=O)=O)CC4)cn3)nc12 [Compound 179] | – | – | ≥ 100 | 10 to 100
CC1(c2cc3cnc(Nc4ccc5c(n4)CCNC5)nc3c(N[C@H]3CCCOC3)n2)COC1 [Compound 888] | ≥ 100 | < 10 | – | –
c1cc2c(nc1Nc1ncc3cc(C4CCOC4)nc(N[C@H]4CCCOC4)c3n1)CCNC2 (stereo partly shown) [Compound 886] | ≥ 100 | < 10 | – | –
CC(C)Nc1nc(C2CCOC2)cc2cnc(Nc3ccc4c(n3)CCN(C(=O)CO)C4)nc12 (stereo not shown) [Compound 1231] | ≥ 100 | < 10 | – | –
CC(C)Nc1nc([C@@H](C)O)cc2cnc(Nc3ccc(N4CCN(C=O)CC4=O)cn3)nc12 [Compound 319] | – | – | ≥ 100 | < 10

SMILES | IC50 [1, 3] [nM] | IC50 [2, 4] [nM] | IC50 [1, 5] [nM] | IC50 [2, 6] [nM]
Cc1cccc(Nc2ncc3cc(C(F)F)nc(NC(C)C)c3n2)n1 [Compound 104] | – | – | ≥ 100 | 10 to 100
CC(C)Nc1nc(C2CCOC2)cc2cnc(Nc3ccc4c(n3)CCN(CCO)C4)nc12 (stereo not shown) [Compound 1229] | ≥ 100 | < 10 | – | –
CC(C)Nc1nc([C@@H](C)O)cc2cnc(Nc3ccc(N4CCNC[C@@H]4C)cn3)nc12 [Compound 986] | ≥ 100 | < 10 | – | –
CC(C)CNc1nc([C@@H](C)O)cc2cnc(Nc3ccc(CN4CCC(O)CC4)cn3)nc12 [Compound 1023] | ≥ 100 | < 10 | – | –
C[C@@H](O)c1cc2cnc(Nc3ccc(CC4CCNCC4)cn3)nc2c(NCC2CCOCC2)n1 [Compound 952] | ≥ 100 | < 10 | – | –
CC(C)Nc1nc([C@@H](C)O)cc2cnc(Nc3ccc(N4CCNCCC4=O)cn3)nc12 [Compound 522] | – | – | 10 to 100 | < 10
CC(C)Nc1nc(C2CCCOC2)cc2cnc(Nc3ccc(N4CCNCC4=O)cn3)nc12 (stereo not shown) [Compound 807] | ≥ 100 | 10 to 100 | – | –
CC(C)Nc1nc([C@@H](C)O)cc2cnc(Nc3ccc(N4CCC(CO)CC4)nn3)nc12 [Compound 660] | ≥ 100 | < 10 | – | –
CC(C)Nc1nc(C(F)F)cc2cnc(Nc3ccc(CN4CCN(S(C)(=O)=O)CC4)cn3)nc12 [Compound 115] | – | – | ≥ 100 | < 10
COCC(C)(C)Nc1nc([C@@H](C)O)cc2cnc(Nc3ccc(CC(N)=O)cn3)nc12 [Compound 222] | – | – | ≥ 100 | 10 to 100
COCC(C)(C)Nc1nc([C@@H](C)O)cc2cnc(Nc3ccc(CCCN4CCOCC4=O)cn3)nc12 [Compound 193] | – | – | ≥ 100 | 10 to 100
CO[C@H](C)c1cc2cnc(Nc3ccc(NC4CCNCC4)nn3)nc2c(NC(C)C)n1 [Compound 336] | – | – | ≥ 100 | < 10
CCNc1nc([C@@H](C)O)c(C)c2cnc(Nc3ccc(CN4CCN(CCO)CC4)cn3)nc12 [Compound 1168] | ≥ 100 | < 10 | – | –
COCC(C)(C)Nc1nc([C@@H](C)O)cc2cnc(Nc3ccc(N4CCC(O)CC4)nn3)nc12 [Compound 202] | – | – | ≥ 100 | 10 to 100
CC(C)Nc1nc(C(F)F)cc2cnc(Nc3ccc(CN4CCN(S(=O)(=O)N(C)C)CC4)cn3)nc12 [Compound 114] | – | – | ≥ 100 | 10 to 100
CO[C@H](C)c1cc2cnc(Nc3ccc(OCCN4CCCC4)cn3)nc2c(NC(C)C)n1 [Compound 287] | – | – | ≥ 100 | < 10
C[C@@H](O)c1cc2cnc(Nc3ccc(CN4CCN(CCO)CC4)cn3)nc2c(NCCC(F)F)n1 [Compound 1213] | ≥ 100 | < 10 | – | –
CC(C)Nc1nc([C@@H](C)O)cc2cnc(Nc3ccc(N4CCC(N)C4=O)cn3)nc12 (stereo partly shown) [Compound 583] | – | – | ≥ 100 | < 10
Cc1nc(Nc2ncc3cc([C@@H](C)O)nc(NC4CCC4)c3n2)ccc1N1CCNCC1=O [Compound 1048] | ≥ 100 | < 10 | – | –
CC(C)Nc1nc(C(F)F)cc2cnc(Nc3ccc(OCCN(C)C)cn3)nc12 [Compound 81] | – | – | 10 to 100 | < 10
C[C@@H](O)c1cc2cnc(Nc3ccc(CN4CCCC(O)C4)cn3)nc2c(NC(C)(C)C)n1 (stereo partly shown) [Compound 1127] | ≥ 100 | < 10 | – | –
CC(C)Nc1nc([C@@H](C)O)c(Cl)c2cnc(Nc3ccc(N4CCC(O)CC4)nn3)nc12 [Compound 753] | ≥ 100 | < 10 | – | –
CO[C@H](C)c1cc2cnc(Nc3ccc(CN4CCN(C(C)(C)C(=O)O)CC4)cn3)nc2c(NC(C)C)n1 [Compound 679] | ≥ 100 | 10 to 100 | – | –
Cc1nc(Nc2ncc3cc([C@@H](C)O)nc(NCC(C)C)c3n2)ccc1N1CCNCC1 [Compound 1093] | ≥ 100 | < 10 | – | –
CO[C@H](C)c1cc2cnc(Nc3ccc(N4CCC(O)C4)nn3)nc2c(NC(C)C)n1 (stereo partly shown) [Compound 334] | – | – | ≥ 100 | 10 to 100
